According to patent US11975099B2, “Ethanol foam sclerosing agent for treating vascular anomalies and preparation method thereof” (QILU HOSPITAL OF SHANDONG UNIVERSITY, priority 2019, dated 2024):

Assays:
[1] = test system: rabbit ear edge; experiment: Animal experiment: rabbit ear edge injection; assay type: in vivo; conditions: 0.5 mL injected, New Zealand white rabbits
Description: Animal experiment: A first experimental group: the experimental subjects were 20 New Zealand white rabbits with the body weight of 1.5 kg, injected with 0.5 mL of absolute ethanol solution. A second experimental group: the experimental subjects were 20 New Zealand white rabbits with the body weight of 1.5 kg, injected with 0.5 mL of the foam sclerosing agent of Embodiment 1. The edges of ears of the experimental subjects in the first experimental group and the second experimental group were all intact before the experiment.

[2] = Plasma experiment (protein coagulation in anticoagulant blood); conditions: added to 1 mL fresh human anticoagulant blood in test tube
Description: Plasma experiment: A plasma experiment was performed using absolute ethanol and the sclerosing agent solution of Embodiment 1. As shown in A of FIG. 3, 1 mL of fresh human anticoagulant blood was taken. As shown in C of FIG. 3, absolute ethanol was added to a test tube, and as shown in B of FIG. 3, the sclerosing agent solution of Embodiment 1 was added to a test tube.

SMILES: CCO [absolute ethanol]
- reaction of ear edge 3 days after the injection ([1]; 3 days): the whole ear has obvious hematoma
- reaction of ear edge 7 days after the injection ([1]; 7 days): the swelling is reduced
- reaction of ear edge 25 days after the injection ([1]; 25 days): the local blood vessels and some normal tissues are destroyed, resulting in tissue defect of the rabbit ear edge
- reaction of ear edge immediately after the injection ([1]; immediately after injection): extensive and large-area hematoma appears on the ear edge immediately
- coagulation of the protein in the plasma [2]: coagulated the protein in the plasma
